Data from PubChem BioAssay AID1963983 (Molecular Pharmacology Branch, DTP, NCI, 2024).
Values belong to the compound of their own block, whether it stands above or below them.

Tested on: 186277-243-T-J2-PDC multi-cell spheroid viability
Test: Anticancer human tumor 186277-243-T-J2-PDC patient-derived colon adenocarcinoma cell line growth inhibition [PI3K]
Conditions: for viability, T/C: stronger effect = lower value
Procedure, shortened: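 Spheroid viability read-out. Co-cultures contained the tumor line plus HUVEC and human MSCs. Each agent was paired with a PI3K inhibitor (inavolisib, alpelisib, duvelisib, copanlisib) across half-log dilutions starting at clinical Cmax, or at 10 microM when Cmax was unknown.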

[1] = curve of first compound, second compound 0.00316 µM
[2] = curve of first compound, second compound 0.01 µM
[3] = curve of first compound, second compound 0.0316 µM
[4] = curve of first compound, second compound 0.1 µM
[5] = curve of first compound, second compound 0.316 µM
[6] = curve of first compound, second compound 1 µM
[7] = second compound 0.00316 µM, first compound 0.0316 µM
[8] = second compound 0.00316 µM, first compound 0.1 µM
[9] = second compound 0.00316 µM, first compound 0.316 µM
[10] = second compound 0.00316 µM, first compound 1 µM
[11] = second compound 0.00316 µM, first compound 3.16 µM
[12] = second compound 0.00316 µM, first compound 10 µM
[13] = second compound 0.01 µM, first compound 0.0316 µM
[14] = second compound 0.01 µM, first compound 0.1 µM
[15] = second compound 0.01 µM, first compound 0.316 µM
[16] = second compound 0.01 µM, first compound 1 µM
[17] = second compound 0.01 µM, first compound 3.16 µM
[18] = second compound 0.01 µM, first compound 10 µM
[19] = second compound 0.0316 µM, first compound 0.0316 µM
[20] = second compound 0.0316 µM, first compound 0.1 µM
[21] = second compound 0.0316 µM, first compound 0.316 µM
[22] = second compound 0.0316 µM, first compound 1 µM
[23] = second compound 0.0316 µM, first compound 3.16 µM
[24] = second compound 0.0316 µM, first compound 10 µM
[25] = second compound 0.1 µM, first compound 0.0316 µM
[26] = second compound 0.1 µM, first compound 0.1 µM
[27] = second compound 0.1 µM, first compound 0.316 µM
[28] = second compound 0.1 µM, first compound 1 µM
[29] = second compound 0.1 µM, first compound 3.16 µM
[30] = second compound 0.1 µM, first compound 10 µM
[31] = second compound 0.316 µM, first compound 0.0316 µM
[32] = second compound 0.316 µM, first compound 0.1 µM
[33] = second compound 0.316 µM, first compound 0.316 µM
[34] = second compound 0.316 µM, first compound 1 µM
[35] = second compound 0.316 µM, first compound 3.16 µM
[36] = second compound 0.316 µM, first compound 10 µM
[37] = second compound 1 µM, first compound 0.0316 µM
[38] = second compound 1 µM, first compound 0.1 µM
[39] = second compound 1 µM, first compound 0.316 µM
[40] = second compound 1 µM, first compound 1 µM
[41] = second compound 1 µM, first compound 3.16 µM
[42] = second compound 1 µM, first compound 10 µM
[43] = curve of first compound, second compound 3.16 µM
[44] = curve of first compound, second compound 10 µM
[45] = second compound 3.16 µM, first compound 0.0316 µM
[46] = second compound 3.16 µM, first compound 0.1 µM
[47] = second compound 10 µM, first compound 0.0316 µM
[48] = second compound 10 µM, first compound 0.1 µM
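Also: spheroids exposed to compounds for seven days before viability reading.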
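For viability, T/C in this document: 100% = DMSO vehicle control viability.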

Structure (SMILES): Cn1ncc(Cl)c1-c1cc(C(=O)NC(CN)Cc2cccc(F)c2)sc1Cl (stereo not given) + CC(Nc1ccc2c(c1)OCCn1cc(N3C(=O)OCC3C(F)F)nc1-2)C(N)=O
IC50 [1]: 608 nM | IC50 [2]: 422 nM | IC50 [3]: 339 nM | IC50 [4]: 226 nM | IC50 [5]: 64.6 nM | IC50 [6]: < 31.6 nM | viability, T/C [7]: 82.7% | viability, T/C [8]: 73.8% | viability, T/C [9]: 48.5% | viability, T/C [10]: 45.4% | viability, T/C [11]: 39.2% | viability, T/C [12]: 10.5% | viability, T/C [13]: 106% | viability, T/C [14]: 76.3% | viability, T/C [15]: 44.6% | viability, T/C [16]: 44.1% | viability, T/C [17]: 34.3% | viability, T/C [18]: 8.87% | viability, T/C [19]: 103% | viability, T/C [20]: 88% | viability, T/C [21]: 45.6% | viability, T/C [22]: 29% | viability, T/C [23]: 23% | viability, T/C [24]: 5.6% | viability, T/C [25]: 88.5% | viability, T/C [26]: 77.6% | viability, T/C [27]: 36.3% | viability, T/C [28]: 21.9% | viability, T/C [29]: 16.6% | viability, T/C [30]: 4.47% | viability, T/C [31]: 64.6% | viability, T/C [32]: 39.7% | viability, T/C [33]: 27.7% | viability, T/C [34]: 14.7% | viability, T/C [35]: 13.5% | viability, T/C [36]: 3.25% | viability, T/C [37]: 45.1% | viability, T/C [38]: 25.5% | viability, T/C [39]: 12.5% | viability, T/C [40]: 11% | viability, T/C [41]: 10.1% | viability, T/C [42]: 1.75%

Structure (SMILES): CCCS(=O)(=O)Nc1ccc(F)c(C(=O)c2c[nH]c3ncc(-c4ccc(Cl)cc4)cc23)c1F
viability, T/C (compound 0.0316 µM): 94.8% [middle of 4 runs] | viability, T/C (compound 0.1 µM): 89.2% [middle of 4 runs] | viability, T/C (compound 0.316 µM): 86.2% [middle of 4 runs] | viability, T/C (compound 1 µM): 86.7% [middle of 4 runs] | viability, T/C (compound 3.16 µM): 84.1% [middle of 4 runs] | viability, T/C (compound 10 µM): 6.39% [middle of 4 runs] | IC50 (curve of compound): 5.39 µM [middle of 4 runs]

Structure (SMILES): C[C@@H](NC(=O)c1ncnc(N)c1Cl)c1ncc(C(=O)Nc2cc(C(F)(F)F)c(Cl)cn2)s1 + Cc1nc(NC(=O)N2CCCC2C(N)=O)sc1-c1ccnc(C(C)(C)C(F)(F)F)c1
IC50 [3]: > 10000 nM | IC50 [4]: > 10000 nM | IC50 [5]: 8100 nM | IC50 [6]: 4320 nM | IC50 [43]: 382 nM | IC50 [44]: < 31.6 nM | viability, T/C [19]: 87.8% | viability, T/C [20]: 78.3% | viability, T/C [21]: 101% | viability, T/C [22]: 99.5% | viability, T/C [23]: 102% | viability, T/C [24]: 78.4% | viability, T/C [25]: 92.9% | viability, T/C [26]: 90.8% | viability, T/C [27]: 93.9% | viability, T/C [28]: 108% | viability, T/C [29]: 99.2% | viability, T/C [30]: 72% | viability, T/C [31]: 104% | viability, T/C [32]: 107% | viability, T/C [33]: 105% | viability, T/C [34]: 88.1% | viability, T/C [35]: 85.8% | viability, T/C [36]: 42.1% | viability, T/C [37]: 103% | viability, T/C [38]: 88.5% | viability, T/C [39]: 102% | viability, T/C [40]: 91.2% | viability, T/C [41]: 62.8% | viability, T/C [42]: 15.7% | viability, T/C [45]: 77.8% | viability, T/C [46]: 65.8% | viability, T/C (second compound 3.16 µM, first compound 0.316 µM): 54.9% | viability, T/C (second compound 3.16 µM, first compound 1 µM): 33.3% | viability, T/C (second compound 3.16 µM, first compound 3.16 µM): 12.9% | viability, T/C (second compound 3.16 µM, first compound 10 µM): 6% | viability, T/C [47]: 18.7% | viability, T/C [48]: 18.9% | viability, T/C (second compound 10 µM, first compound 0.316 µM): 14.2% | viability, T/C (second compound 10 µM, first compound 1 µM): 4.89% | viability, T/C (second compound 10 µM, first compound 3.16 µM): 5.43% | viability, T/C (second compound 10 µM, first compound 10 µM): 0.25%

Continued by falling IC50 [3], values first:

IC50 [1]: 919 nM | IC50 [2]: 551 nM | IC50 [3]: 178 nM | IC50 [4]: < 31.6 nM | IC50 [5]: < 31.6 nM | IC50 [6]: < 31.6 nM
Structure (SMILES): CC(C)NCC(C(=O)N1CCN(c2ncnc3c2C(C)CC3O)CC1)c1ccc(Cl)cc1 (stereo not given) + COc1c(OCCCN2CCOCC2)ccc2c3n(c(=NC(=O)c4cnc(N)nc4)nc12)CCN3
viability, T/C [7]: 93.9% | viability, T/C [8]: 86.5% | viability, T/C [9]: 73.1% | viability, T/C [10]: 46.9% | viability, T/C [11]: 30.9% | viability, T/C [12]: 20.5% | viability, T/C [13]: 102% | viability, T/C [14]: 93.2% | viability, T/C [15]: 68.8% | viability, T/C [16]: 29.2% | viability, T/C [17]: 20.6% | viability, T/C [18]: 12.2% | viability, T/C [19]: 69.4% | viability, T/C [20]: 62.7% | viability, T/C [21]: 37.1% | viability, T/C [22]: 23.2% | viability, T/C [23]: 15.2% | viability, T/C [24]: 10.8% | viability, T/C [25]: 21.8% | viability, T/C [26]: 16.4% | viability, T/C [27]: 11% | viability, T/C [28]: 7.77% | viability, T/C [29]: 7.84% | viability, T/C [30]: 5.5% | viability, T/C [31]: 5.04% | viability, T/C [32]: 3.98% | viability, T/C [33]: 5.15% | viability, T/C [34]: 10.1% | viability, T/C [35]: 6.04% | viability, T/C [36]: 8.76% | viability, T/C [37]: 1.65% | viability, T/C [38]: 3.37% | viability, T/C [39]: 1.85% | viability, T/C [40]: 2.98% | viability, T/C [41]: 2.47% | viability, T/C [42]: 2.26%

IC50 [3]: 63.4 nM | IC50 [4]: 59.2 nM | IC50 [5]: 61.7 nM | IC50 [6]: 56.1 nM | IC50 [43]: 47.8 nM | IC50 [44]: 47.2 nM
Structure (SMILES): CC(C)n1nc(-c2ccc3oc(N)nc3c2)c2c(N)ncnc21 + CC(Nc1ncnc2nc[nH]c12)c1cc2cccc(Cl)c2c(=O)n1-c1ccccc1
viability, T/C (second compound 0.0316 µM, first compound 0.000316 µM): 86.4% | viability, T/C (second compound 0.0316 µM, first compound 0.001 µM): 96% | viability, T/C (second compound 0.0316 µM, first compound 0.00316 µM): 108% | viability, T/C (second compound 0.0316 µM, first compound 0.01 µM): 90.2% | viability, T/C [19]: 81.5% | viability, T/C [20]: 29.2% | viability, T/C (second compound 0.1 µM, first compound 0.000316 µM): 112% | viability, T/C (second compound 0.1 µM, first compound 0.001 µM): 101% | viability, T/C (second compound 0.1 µM, first compound 0.00316 µM): 96.7% | viability, T/C (second compound 0.1 µM, first compound 0.01 µM): 97.1% | viability, T/C [25]: 80.3% | viability, T/C [26]: 25.3% | viability, T/C (second compound 0.316 µM, first compound 0.000316 µM): 105% | viability, T/C (second compound 0.316 µM, first compound 0.001 µM): 103% | viability, T/C (second compound 0.316 µM, first compound 0.00316 µM): 89.1% | viability, T/C (second compound 0.316 µM, first compound 0.01 µM): 103% | viability, T/C [31]: 79.6% | viability, T/C [32]: 28.6% | viability, T/C (second compound 1 µM, first compound 0.000316 µM): 96.7% | viability, T/C (second compound 1 µM, first compound 0.001 µM): 108% | viability, T/C (second compound 1 µM, first compound 0.00316 µM): 102% | viability, T/C (second compound 1 µM, first compound 0.01 µM): 96.3% | viability, T/C [37]: 72.5% | viability, T/C [38]: 27.4% | viability, T/C (second compound 3.16 µM, first compound 0.000316 µM): 95% | viability, T/C (second compound 3.16 µM, first compound 0.001 µM): 90.8% | viability, T/C (second compound 3.16 µM, first compound 0.00316 µM): 95.4% | viability, T/C (second compound 3.16 µM, first compound 0.01 µM): 92.2% | viability, T/C [45]: 64.9% | viability, T/C [46]: 23.5% | viability, T/C (second compound 10 µM, first compound 0.000316 µM): 89.7% | viability, T/C (second compound 10 µM, first compound 0.001 µM): 94.5% | viability, T/C (second compound 10 µM, first compound 0.00316 µM): 78% | viability, T/C (second compound 10 µM, first compound 0.01 µM): 80.5% | viability, T/C [47]: 69.7% | viability, T/C [48]: 17.6%
